Reference: PubChem BioAssay AID2060501 (Molecular Pharmacology Branch, DTP, NCI, 2025)

System: 282377-053-R-J1-PDC complex spheroids, viability
Experiment: Anticancer human tumor 282377-053-R-J1-PDC patient-derived colon adenocarcinoma cell line growth inhibition [GQUAD]
Conditions: for IC50: curve of first compound; for viability, T/C: stronger effect = lower value; active = viability on the fitted dose curve at most 10% of control; inactive = the rest
In short: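 Multi-cell-type spheroids of tumor cells with HUVEC and mesenchymal stem cells, treated with drug combinations. Concentrations descend in half-log steps from near clinical Cmax, or from 10 microM where Cmax is unknown; viability read-out.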

[1] = second compound 0.0316 µM, first compound 0.0316 µM
[2] = second compound 0.0316 µM, first compound 0.1 µM
[3] = second compound 0.0316 µM, first compound 0.316 µM
[4] = second compound 0.0316 µM, first compound 1 µM
[5] = second compound 0.0316 µM, first compound 3.16 µM
[6] = second compound 0.0316 µM, first compound 10 µM
[7] = second compound 0.1 µM, first compound 0.0316 µM
[8] = second compound 0.1 µM, first compound 0.1 µM
[9] = second compound 0.1 µM, first compound 0.316 µM
[10] = second compound 0.1 µM, first compound 1 µM
[11] = second compound 0.1 µM, first compound 3.16 µM
[12] = second compound 0.1 µM, first compound 10 µM
[13] = second compound 0.316 µM, first compound 0.0316 µM
[14] = second compound 0.316 µM, first compound 0.1 µM
[15] = second compound 0.316 µM, first compound 0.316 µM
[16] = second compound 0.316 µM, first compound 1 µM
[17] = second compound 0.316 µM, first compound 3.16 µM
[18] = second compound 0.316 µM, first compound 10 µM
[19] = second compound 1 µM, first compound 0.0316 µM
[20] = second compound 1 µM, first compound 0.1 µM
[21] = second compound 1 µM, first compound 0.316 µM
[22] = second compound 1 µM, first compound 1 µM
[23] = second compound 1 µM, first compound 3.16 µM
[24] = second compound 1 µM, first compound 10 µM
[25] = second compound 3.16 µM, first compound 0.0316 µM
[26] = second compound 3.16 µM, first compound 0.1 µM
[27] = second compound 3.16 µM, first compound 0.316 µM
[28] = second compound 3.16 µM, first compound 1 µM
[29] = second compound 3.16 µM, first compound 3.16 µM
[30] = second compound 3.16 µM, first compound 10 µM
[31] = second compound 10 µM, first compound 0.0316 µM
[32] = second compound 10 µM, first compound 0.1 µM
[33] = second compound 10 µM, first compound 0.316 µM
[34] = second compound 10 µM, first compound 1 µM
[35] = second compound 10 µM, first compound 3.16 µM
[36] = second compound 10 µM, first compound 10 µM
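Note: spheroids exposed to compounds for 7 days before readout.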
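Throughout, for viability, T/C: percent of vehicle DMSO control viability with 100% = untreated-like growth.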

Cc1cccc(N(C)C(=O)C2C(O)CCN2c2nc(C)cc(C(F)(F)F)c2C#N)c1 (stereo not given) + Cc1[nH]c2ccc(F)cc2c1-c1nc2c3cccnc3c3ncccc3c2[nH]1
inactive: viability, T/C [1] 89.3% | viability, T/C [2] 94.1% | viability, T/C [3] 113% | viability, T/C [4] 95.9% | viability, T/C [5] 100% | viability, T/C [6] 76.2% | viability, T/C [7] 95.7% | viability, T/C [8] 91.3% | viability, T/C [9] 83.5% | viability, T/C [10] 109% | viability, T/C [11] 82.8% | viability, T/C [12] 94.6% | viability, T/C [13] 77.2% | viability, T/C [14] 100% | viability, T/C [15] 92.1% | viability, T/C [16] 92.8% | viability, T/C [17] 93% | viability, T/C [18] 114% | viability, T/C [19] 86% | viability, T/C [20] 88.3% | viability, T/C [21] 94.6% | viability, T/C [22] 109% | viability, T/C [23] 86.2% | viability, T/C [24] 89.6% | viability, T/C [25] 78% | viability, T/C [26] 73% | viability, T/C [27] 66.8% | viability, T/C [28] 65.7% | viability, T/C [29] 75.5% | viability, T/C [30] 79.3% | viability, T/C [31] 47% | viability, T/C [32] 56.4% | viability, T/C [33] 66.4% | viability, T/C [34] 43.6% | viability, T/C [35] 36.8% | viability, T/C [36] 35%
> 10 µM: IC50 (second compound 0.0316 µM) | IC50 (second compound 0.1 µM) | IC50 (second compound 0.316 µM) | IC50 (second compound 1 µM) | IC50 (second compound 3.16 µM)
0.567 µM: IC50 (second compound 10 µM)

COc1ccc([C@@H](O)c2cc(-c3ncnc4cc(N5CCOCC5)ccc34)c(F)cc2Cl)nn1 + Cc1[nH]c2ccc(F)cc2c1-c1nc2c3cccnc3c3ncccc3c2[nH]1
< 0.0316 µM: IC50 (second compound 10 µM)
0.432 µM: IC50 (second compound 3.16 µM)
inactive: viability, T/C [1] 101% | viability, T/C [2] 91.3% | viability, T/C [3] 102% | viability, T/C [4] 73.9% | viability, T/C [5] 76.3% | viability, T/C [6] 63.8% | viability, T/C [7] 107% | viability, T/C [8] 101% | viability, T/C [9] 97.9% | viability, T/C [10] 84.9% | viability, T/C [11] 72% | viability, T/C [12] 61.1% | viability, T/C [13] 87.8% | viability, T/C [14] 93% | viability, T/C [15] 73.8% | viability, T/C [16] 93.7% | viability, T/C [17] 75.3% | viability, T/C [18] 60.6% | viability, T/C [19] 86.5% | viability, T/C [20] 88.5% | viability, T/C [21] 94.7% | viability, T/C [22] 97.1% | viability, T/C [23] 88.2% | viability, T/C [24] 57.4% | viability, T/C [25] 75.7% | viability, T/C [26] 68.6% | viability, T/C [27] 47.2% | viability, T/C [28] 42.8% | viability, T/C [29] 33.2% | viability, T/C [30] 15.9% | viability, T/C [31] 44.8% | viability, T/C [32] 47.4% | viability, T/C [33] 33.6% | viability, T/C [34] 26.3% | viability, T/C [35] 19.6% | viability, T/C [36] 21.1%
> 10 µM: IC50 (second compound 0.0316 µM) | IC50 (second compound 0.1 µM) | IC50 (second compound 0.316 µM) | IC50 (second compound 1 µM)

O=C(c1cc(Cc2n[nH]c(=O)c3ccccc23)ccc1F)N1CCN(C(=O)C2CC2)CC1 + CN(C)c1ccc(Nc2c3ccc(NC(=O)CCN4CCCC4)cc3nc3cc(NC(=O)CCN4CCCC4)ccc23)cc1
> 10 µM: IC50 (second compound 0.0316 µM) | IC50 (second compound 0.1 µM) | IC50 (second compound 0.316 µM) | IC50 (second compound 1 µM) | IC50 (second compound 3.16 µM) | IC50 (second compound 10 µM)
inactive: viability, T/C [1] 102% | viability, T/C [2] 91.5% | viability, T/C [3] 94.2% | viability, T/C [4] 97.4% | viability, T/C [5] 105% | viability, T/C [6] 96.8% | viability, T/C [7] 128% | viability, T/C [8] 107% | viability, T/C [9] 96.9% | viability, T/C [10] 100% | viability, T/C [11] 89.7% | viability, T/C [12] 90.7% | viability, T/C [13] 102% | viability, T/C [14] 92.6% | viability, T/C [15] 83.4% | viability, T/C [16] 81.5% | viability, T/C [17] 91.2% | viability, T/C [18] 109% | viability, T/C [19] 108% | viability, T/C [20] 88% | viability, T/C [21] 88.1% | viability, T/C [22] 74.9% | viability, T/C [23] 74.7% | viability, T/C [24] 92.4% | viability, T/C [25] 91.6% | viability, T/C [26] 83.5% | viability, T/C [27] 99.3% | viability, T/C [28] 101% | viability, T/C [29] 86.5% | viability, T/C [30] 89.5% | viability, T/C [31] 99% | viability, T/C [32] 88.4% | viability, T/C [33] 105% | viability, T/C [34] 75.9% | viability, T/C [35] 108% | viability, T/C [36] 119%

COc1ncnc(C2CC2)c1-c1ncc2cnn(Cc3ccc(-c4nc(C(F)(F)F)cn4C(C)C)cc3)c2n1 + Cc1cnc(CNC(=O)c2c(=O)c3ccc(N4CCCN(C)CC4)nc3n3c2sc2ccccc23)cn1
0.865 µM: IC50 (second compound 3.16 µM)
inactive: viability, T/C [1] 108% | viability, T/C [2] 107% | viability, T/C [3] 119% | viability, T/C [4] 92.6% | viability, T/C [5] 123% | viability, T/C [6] 95.3% | viability, T/C [7] 121% | viability, T/C [8] 96.2% | viability, T/C [9] 94.4% | viability, T/C [10] 100% | viability, T/C [11] 125% | viability, T/C [12] 93.5% | viability, T/C [13] 105% | viability, T/C [14] 78.3% | viability, T/C [15] 71.1% | viability, T/C [16] 76.2% | viability, T/C [17] 76.5% | viability, T/C [18] 82.3% | viability, T/C [19] 60.6% | viability, T/C [20] 54.8% | viability, T/C [21] 55.8% | viability, T/C [22] 52.8% | viability, T/C [23] 57.9% | viability, T/C [24] 55.9% | viability, T/C [25] 53.3% | viability, T/C [26] 49.2% | viability, T/C [27] 49.2% | viability, T/C [28] 49.7% | viability, T/C [29] 52.8% | viability, T/C [30] 47.1% | viability, T/C [31] 41.1% | viability, T/C [32] 45.2% | viability, T/C [33] 46.5% | viability, T/C [34] 46.6% | viability, T/C [35] 50.3% | viability, T/C [36] 35.6%
< 0.0316 µM: IC50 (second compound 10 µM)
> 10 µM: IC50 (second compound 0.0316 µM) | IC50 (second compound 0.1 µM) | IC50 (second compound 0.316 µM) | IC50 (second compound 1 µM)

O=C(NO)c1cnc(N2CCN(S(=O)(=O)c3ccc4ccccc4c3)CC2)nc1 + Cc1[nH]c2ccc(F)cc2c1-c1nc2c3cccnc3c3ncccc3c2[nH]1
0.0553 µM: IC50 (second compound 0.1 µM)
< 0.0316 µM: IC50 (second compound 3.16 µM) | IC50 (second compound 10 µM)
active: viability, T/C [26] 7.85% | viability, T/C [27] 7.14% | viability, T/C [28] 6.02% | viability, T/C [29] 6.61% | viability, T/C [30] 7.81% | viability, T/C [32] 7.83% | viability, T/C [33] 5.03% | viability, T/C [34] 6.51% | viability, T/C [35] 4.71% | viability, T/C [36] 7.67%
inactive: viability, T/C [1] 78% | viability, T/C [2] 17.6% | viability, T/C [3] 18.6% | viability, T/C [4] 19.8% | viability, T/C [5] 24% | viability, T/C [6] 30.6% | viability, T/C [7] 78% | viability, T/C [8] 18.6% | viability, T/C [9] 16.4% | viability, T/C [10] 18.6% | viability, T/C [11] 21.2% | viability, T/C [12] 26.9% | viability, T/C [13] 63.6% | viability, T/C [14] 18.4% | viability, T/C [15] 17.1% | viability, T/C [16] 18.1% | viability, T/C [17] 21.4% | viability, T/C [18] 22.9% | viability, T/C [19] 58.7% | viability, T/C [20] 15.1% | viability, T/C [21] 19.3% | viability, T/C [22] 13.7% | viability, T/C [23] 16.1% | viability, T/C [24] 21.8% | viability, T/C [25] 30.5% | viability, T/C [31] 19.7%
0.0452 µM: IC50 (second compound 0.316 µM)
0.0402 µM: IC50 (second compound 1 µM)
0.0563 µM: IC50 (second compound 0.0316 µM)
